The values that follow come from patent US8518980B2, “Treatment of Duchenne muscular dystrophy” (Summit Corporation PLC, priority 2006, dated 2013).

The assay relates to Utrophin A promoter linked to a luciferase reporter gene (H2K/mdx/Utro A reporter cell line). In words: Luciferase reporter assay (murine H2K cells). Particulars: for activity at 10 µM: Mus musculus, H2K mdx.

On to `C(=C\c1nc2ccccc2[nH]1)/c1ccccc1` [Example 547, (E)-2-styryl-1H-benzo[d]imidazole], for which the activity at 10 µM fell in the range of 301 to 400%.

Take `Cc1ccc(C)c(OCc2nc3ccccc3[nH]2)c1` [Example 548, 2-((2,5-dimethylphenoxy)methyl)-1H-benzo[d]imidazole]: the activity at 10 µM was under 200%.

For `CCOc1ccc(-c2nc3cc(N)ccc3o2)cc1` [Example 549, 2-(4-ethoxyphenyl)benzo[d]oxazol-5-amine], the activity at 10 µM was under 200%.

With `Nc1ccc(O)c(-c2nc3cc(N)ccc3s2)c1` [Example 550, 4-amino-2-(5-aminobenzo[d]thiazol-2-yl)phenol], the activity at 10 µM is under 200%.

As to `CCc1ccc2oc(-c3cc(N)ccc3O)nc2c1` [Example 551, 4-amino-2-(5-ethylbenzo[d]oxazol-2-yl)phenol], the activity at 10 µM was under 200%.

Turning to `c1ccc(NNc2nc3ccccc3s2)cc1` [Example 552, 2-(2-phenylhydrazinyl)benzo[d]thiazole], the activity at 10 µM was under 200%.

For `CCc1ccc2oc(-c3ccc(N)cc3)nc2c1` [Example 553, 4-(5-ethylbenzo[d]oxazol-2-yl)aniline], the activity at 10 µM was over 401%.

`Cc1ccc2[nH]c(-c3ccccc3N)nc2c1` [Example 554, 2-(5-methyl-1H-benzo[d]imidazol-2-yl)aniline]: the activity at 10 µM fell in the range of 301 to 400%.

`CCOc1ccc2nc(NC(=O)c3ccccc3)sc2c1` [Example 555, N-(6-ethoxybenzo[d]thiazol-2-yl)benzamide]: the activity at 10 µM was under 200%.

As for `CC(=O)Nc1ccc(-c2nc3cc(Cl)c(NC(C)=O)cc3[nH]2)cc1` [Example 556, N-(4-(6-acetamido-5-chloro-1H-benzo[d]imidazol-2-yl)phenyl)acetamide], the activity at 10 µM was under 200%.

`Nc1ccc(Oc2ccc(-c3nc4ccccc4[nH]3)cc2)cc1` [Example 557, 4-(4-(1H-benzo[d]imidazol-2-yl)phenoxy)aniline]: the activity at 10 µM is over 401%.

Regarding `c1ccc(-c2ccc(-c3nc4ccccc4[nH]3)cc2)cc1` [Example 558, 2-(biphenyl-4-yl)-1H-benzo[d]imidazole], the activity at 10 µM is under 200%.

With `Cc1cc2nc(-c3cc(N)ccc3O)oc2cc1C` [Example 559, 4-amino-2-(5,6-dimethylbenzo[d]oxazol-2-yl)phenol], the activity at 10 µM was 301 to 400%.

In the case of `Nc1ccc2[nH]c(-c3ccc(Cl)cc3)nc2c1` [Example 560, 2-(4-chlorophenyl)-1H-benzo[d]imidazol-5-amine], the activity at 10 µM fell in the range of 301 to 400%.

Consider `c1csc(-c2nc3cc4ccccc4cc3[nH]2)c1` [Example 561, 2-(thiophen-2-yl)-1H-naphtho[2,3-d]imidazole], for which the activity at 10 µM was 301 to 400%.

For `O=C(Nc1ccc(-c2nc3ccccc3[nH]2)cc1)c1ccco1` [Example 562, N-(4-(1H-benzo[d]imidazol-2-yl)phenyl)furan-2-carboxamide], the activity at 10 µM is 301 to 400%.

Turning to `CCSc1nc2ccc(N)cc2s1` [Example 563, 2-(ethylthio)benzo[d]thiazol-6-amine], the activity at 10 µM is 201 to 300%.

As for `Cc1ccc2nc(-c3ccc(NC(=O)C(C)C)cc3)oc2c1` [Example 564, N-(4-(6-methylbenzo[d]oxazol-2-yl)phenyl)isobutyramide], the activity at 10 µM is under 200%.

`CC(C)c1ccc2oc(-c3ccc(N)cc3O)nc2c1` [Example 565, 5-amino-2-(5-isopropylbenzo[d]oxazol-2-yl)phenol]: the activity at 10 µM fell in the range of 301 to 400%.

Regarding `Cc1c(N)cccc1-c1nc2cc(Cl)ccc2o1` [Example 566, 3-(5-chlorobenzo[d]oxazol-2-yl)-2-methylaniline], the activity at 10 µM is under 200%.

On to `Cc1ccc(C(=O)Nc2nc3ccccc3s2)c(Cl)c1` [Example 567, N-(benzo[d]thiazol-2-yl)-2-chloro-4-methylbenzamide], for which the activity at 10 µM was under 200%.

On to `Cc1ccc(-c2nc3ccccc3[nH]2)cc1NC(=O)C(F)(F)F` [Example 568, N-(5-(1H-benzo[d]imidazol-2-yl)-2-methylphenyl)-2,2,2-trifluoroacetamide], for which the activity at 10 µM fell in the range of 301 to 400%.

Regarding `Nc1ccc2oc(-c3ccccc3F)nc2c1` [Example 569, 2-(2-fluorophenyl)benzo[d]oxazol-5-amine], the activity at 10 µM was in the range of 301 to 400%.

Regarding `CCCCc1nc2cc(S(=O)(=O)CC)ccc2o1` [Example 570, 2-butyl-5-(ethylsulfonyl)benzo[d]oxazole], the activity at 10 µM was under 200%.

Regarding `CCCc1nc2cc(S(=O)(=O)CC)ccc2o1` [Example 571, 5-(ethylsulfonyl)-2-propylbenzo[d]oxazole], the activity at 10 µM was under 200%.

Consider `CCc1nc2cc(S(=O)(=O)CC)ccc2o1` [Example 572, 2-ethyl-5-(ethylsulfonyl)benzo[d]oxazole], for which the activity at 10 µM was under 200%.

For `CCS(=O)(=O)c1ccc2ocnc2c1` [Example 573, 5-(ethylsulfonyl)benzo[d]oxazole], the activity at 10 µM is under 200%.

Turning to `CCS(=O)(=O)c1ccc2oc(S)nc2c1` [Example 574, 5-(ethylsulfonyl)benzo[d]oxazole-2-thiol], the activity at 10 µM is under 200%.

Consider `CC(=O)Nc1cccc(-c2ccc3oc(-c4ccc(Cl)cc4)nc3c2)c1` [Example 575, N-(3-(2-(4-chlorophenyl)benzo[d]oxazol-5-yl)phenyl)acetamide], for which the activity at 10 µM was over 401%.

Regarding `CCNC(=O)Nc1ccc2[nH]c(C(C)(C)C)cc2c1` [Example 576, 1-(2-tert-butyl-1H-indol-5-yl)-3-ethylurea], the activity at 10 µM is under 200%.

As to `Nc1ccc2oc(-c3cccc4ccccc34)nc2c1` [Example 577, 2-(naphthalen-1-yl)benzo[d]oxazol-5-amine], the activity at 10 µM was under 200%.

`CCCS(=O)(=O)c1ccc2oc(-c3ccc(Cl)cc3)nc2c1` [Example 578, 2-(4-chlorophenyl)-5-(propylsulfonyl)benzo[d]oxazole]: the activity at 10 µM was under 200%.

For `Oc1ccc2nc(-c3ccc(Cl)cc3)oc2c1` [Example 579, 2-(4-chlorophenyl)benzo[d]oxazol-6-ol], the activity at 10 µM is over 401%.

In the case of `Cc1ccc2[nH]c(-c3ccc(NC(=O)c4ccco4)cc3)nc2c1` [Example 580, N-(4-(5-Methyl-1H-benzo[d]imidazol-2-yl)phenyl)furan-2-carboxamide], the activity at 10 µM was 301 to 400%.

As to `O=C(c1ccccc1)c1ccc2nc(-c3ccccc3)[nH]c2c1` [Example 581, Phenyl (2-phenyl-1H-benzo[d]imidazol-6-yl)methanone], the Activity entry (Table 2, luciferase level relative to control, final concentration of 10 μM) is on record as “+ (Up to 200% relative to control)”.

Consider `COc1ccc(-c2nc3ccccc3s2)cc1` [Example 582, 2-(4-Methoxyphenyl)benzo[d]thiazole], for which the activity at 10 µM is over 401%.

For the molecule `COc1ccc(-c2nc3ccccc3o2)cc1` [Example 583, 2-(4-Methoxyphenyl)benzo[d]oxazole], the activity at 10 µM fell in the range of 301 to 400%.

Regarding `COc1ccc(-c2nc3ccc([N+](=O)[O-])cc3o2)cc1` [Example 584, 2-(4-Methoxyphenyl)-6-nitrobenzo[d]oxazole], the activity at 10 µM lay in the range of 301 to 400%.

Consider `O=C(Nc1ccc(-c2nc3ccccc3[nH]2)cc1)c1cccs1` [Example 585, N-(4-(1H-Benzo[d]imidazol-2-yl)phenyl)thiophene-2-carboxamide], for which the activity at 10 µM was over 401%.

For the molecule `COc1ccc(-c2nc3cc([N+](=O)[O-])ccc3[nH]2)cc1` [Example 586, 2-(4-Methoxyphenyl)-5-nitro-1H-benzo[d]imidazole], the activity at 10 µM fell in the range of 201 to 300%.

Take `O=C(Nc1ccc(-c2nc3ccccc3[nH]2)cc1)C1CCCO1` (stereo not shown) [Example 587, N-(4-(1H-Benzo[d]imidazol-2-yl)phenyl)tetrahydrofuran-2-carboxamide]: the activity at 10 µM was 301 to 400%.

Turning to `Cc1ccc(-c2nc3ccccc3n2C)cc1` [Example 588, 1-Methyl-2-p-tolyl-1H-benzo[d]imidazole], the activity at 10 µM lay in the range of 301 to 400%.

For `CC(=O)Nc1ccc(-c2nc3ccccc3o2)cc1` [Example 589, N-(4-(Benzo[d]oxazol-2-yl)phenyl)acetamide], the activity at 10 µM was in the range of 301 to 400%.

Regarding `Cc1cc(C)c2nc(-c3ccc(N)cc3)oc2c1` [Example 590, 4-(4,6-Dimethylbenzo[d]oxazol-2-yl)aniline], the activity at 10 µM is over 401%.

With `CC(=O)Nc1ccc(-c2nc3ccccc3[nH]2)cc1` [Example 591, N-(4-(1H-Benzo[d]imidazol-2-yl)phenyl)acetamide], the activity at 10 µM fell in the range of 301 to 400%.

As for `Nc1cc(-c2nc3ccccc3s2)ccc1Cl` [Example 592, 5-(Benzo[d]thiazol-2-yl)-2-chloroaniline], the activity at 10 µM was over 401%.

Consider `CC(C)(C)c1ccc2oc(-c3ccc(N)cc3)nc2c1` [Example 593, 4-(5-Tert-butylbenzo[d]oxazol-2-yl)aniline], for which the activity at 10 µM was in the range of 301 to 400%.

Regarding `Oc1cccc(-c2nc3ccccc3s2)c1` [Example 594, 3-(Benzo[d]thiazol-2-yl)phenol], the activity at 10 µM was over 401%.

Turning to `Clc1ccc(-c2nc3ccccc3s2)c(Cl)c1` [Example 595, 2-(2,4-Dichlorophenyl)benzo[d]thiazole], the activity at 10 µM was 201 to 300%.

As for `COc1ccc(-c2nc3ccccc3s2)cc1O` [Example 596, 5-(Benzo[d]thiazol-2-yl)-2-methoxyphenol], the activity at 10 µM is over 401%.

For `COc1ccc(-c2nc3ccccc3s2)cc1N` [Example 597, 5-(Benzo[d]thiazol-2-yl)-2-methoxyaniline], the activity at 10 µM was in the range of 301 to 400%.

On to `Nc1ccc2nc(-c3cccc(Cl)c3)oc2c1` [Example 598, 2-(3-Chlorophenyl)benzo[d]oxazol-6-amine], for which the activity at 10 µM was in the range of 301 to 400%.

Consider `Cc1cc(-c2nc3ccccc3s2)ccc1[N+](=O)[O-]` [Example 599, 2-(3-Methyl-4-nitrophenyl)benzo[d]thiazole], for which the activity at 10 µM was over 401%.

Consider `COc1cccc(-c2nc3ccccc3[nH]2)c1` [Example 600, 2-(3-Methoxyphenyl)-1H-benzo[d]imidazole], for which the activity at 10 µM lay in the range of 201 to 300%.

Turning to `Nc1ccc(-c2nc3ccccc3s2)cc1` [Example 601, 4-(Benzo[d]thiazol-2-yl)aniline], the activity at 10 µM lay within 301 to 400%.
